The test system of test [1] is BT474 (human breast carcinoma). The test can be described thus: In vitro tumor cell proliferation assay (Cell Titer-Glo luminescent cell viability), BT474. The class given is cell-based. The conditions noted are these: BT-474, 72 h, BT474 cells, 72 hours of drug exposure, ATP luminescence readout, read-out: IC50, anti-proliferative activity (inhibition of cell proliferation). In outline:
(§1)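 IC50 values reflect ATP-based luminescence (CellTiter-Glo) after 72 h compound exposure at 37°C. Both lines, A431 and BT474, were plated in RPMI with 10% FBS and received serial dilutions ranging from 100 μM to 64 pM final at 0.1% DMSO.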

The test system of test [2] is A431 cells (human epidermoid carcinoma). The test can be described thus: In vitro tumor cell proliferation assay (Cell Titer-Glo luminescent cell viability), A431. It counts as cell-based. Particulars: A-431, 72 h, 72 hours of drug exposure, ATP luminescence readout, read-out: IC50, anti-proliferative activity (inhibition of cell proliferation). In outline: as §1
A general note: ATP-based viability assays read luminescence as a measure of living cells.

Structures can show the parent of a compound that is named as a salt.

On to `Fc1ccc(Nc2ncnc3sc4c(c23)CCc2n[nH]cc2-4)cc1Cl` [Example 40, N-(3-chloro-4-fluorophenyl)-4,5-dihydro-2H-pyrimido[5′,4′:4,5]thieno[2,3-e]indazol-6-amine], for which the IC50 in test [1] and in test [2] was not above 5 µM in each case.

With `OCC(O)Cn1ncc2c1CCc1c-2sc2ncnc(Nc3ccc(OCc4cccc(F)c4)c(Cl)c3)c12` (stereo not shown) [Example 132, 3-[6-({3-chloro-4-[(3-fluorobenzyl)oxy]phenyl}amino)-4,5-dihydro-3Hpyrimido[5′,4′:4,5]thieno[2,3-e]indazol-3-yl]propane-1,2-diol], the IC50 was not above 1 µM in test [1] and not above 5 µM in test [2].

`Fc1cccc(Cn2ncc3cc(Nc4ncnc5sc6c(c45)CCc4c-6cnn4CCN4CCOCC4)ccc32)c1` [Example 296, N-[1-(3-fluorobenzyl)-1H-indazol-5-yl]-3-(2-morpholin-4-ylethyl)-4,5-dihydro-3H-pyrimido[5′,4′:4,5]thieno[2,3-e]indazol-6-amine]: the IC50 was not above 1 µM in test [1] and not above 5 µM in test [2].

As for `OCCN(CCO)CCn1ncc2c1CCc1c-2sc2ncnc(Nc3ccc(OCc4cccc(F)c4)c(Cl)c3)c12` [Example 262, 2,2′-({2-[6-({3-chloro-4-[(3-fluorobenzyl)oxy]phenyl}amino)-4,5-dihydro-3H-pyrimido[5′,4′:4,5]thieno[2,3-e]indazol-3-yl]ethyl}imino)diethanol], the IC50 was not above 1 µM in test [1] and not above 50 µM in test [2].

On to `CCCN1CCC(Cn2cc3c(n2)CCc2c-3sc3ncnc(Nc4ccc(OCc5cccc(F)c5)c(Cl)c4)c23)CC1` [Example 243, N-{3-chloro-4-[(3-fluorobenzyl)oxy]phenyl}-2-[(1-propylpiperidin-4-yl)methyl]-4,5-dihydro-2H-pyrimido[5′,4′:4,5]thieno[2,3-e]indazol-6-amine], for which the IC50 is not above 1 µM in test [1] and not above 5 µM in test [2].

Turning to `O=C(Cn1cc2c(n1)CCc1c-2sc2ncnc(Nc3ccc(OCc4cccc(F)c4)c(Cl)c3)c12)NCCN1CCOCC1` [Example 189, 2-[6-({3-chloro-4-[(3-fluorobenzyl)oxy]phenyl}amino)-4,5-dihydro-2H-pyrimido[5′,4′:4,5]thieno[2,3-e]indazol-2-yl]-N-(2-morpholin-4-ylethyl)acetamide], the IC50 in test [1] was not above 1 µM; in test [2], not above 50 µM.

Take `COc1ccc(Nc2ncnc3sc4c(c23)CCc2nn(CCN3CCN(C)CC3)cc2-4)cc1Cl` [Example 52, N-(3-chloro-4-methoxyphenyl)-2-[2-(4-methylpiperazin-1-yl)ethyl]-4,5-dihydro-2H-pyrimido[5′,4′:4,5]thieno[2,3-e]indazol-6-amine]: the IC50 is not above 5 µM in test [1] and not above 50 µM in test [2].

Consider `CC(C)(C)OC(=O)N1CCN(CCn2cc3c(n2)CCc2c-3sc3ncnc(Nc4ccc(OCc5cccc(F)c5)c(Cl)c4)c23)CC1` [Example 72, tert-butyl 4-{2-[6-({3-chloro-4-[(3-fluorobenzyl)oxy]phenyl}amino)-4,5-dihydro-2H-pyrimido[5′,4′:4,5]thieno[2,3-e]indazol-2-yl]ethyl}piperazine-1-carboxylate], for which the IC50 in test [1] and in test [2] was not above 50 µM each time.

With `Clc1cc(Nc2ncnc3sc4c(c23)CCc2n[nH]cc2-4)ccc1OCc1ccccc1` [Example 127, N-[4-(benzyloxy)-3-chlorophenyl]-4,5-dihydro-2H-pyrimido[5′,4′:4,5]thieno[2,3-e]indazol-6-amine], the IC50 in test [1] was not above 1 µM; in test [2], not above 5 µM.

For `COCCNCCn1cc2c(n1)CCc1c-2sc2ncnc(Nc3ccc4c(cnn4Cc4cccc(F)c4)c3)c12` [Example 280, N-[1-(3-fluorobenzyl)-1H-indazol-5-yl]-2-{2-[(2-methoxyethyl)amino]ethyl}-4,5-dihydro-2H-pyrimido[5′,4′:4,5]thieno[2,3-e]indazol-6-amine], the IC50 was not above 1 µM in test [1] and not above 5 µM in test [2].

As for `CN1CCN(CCn2cc3c(n2)CCc2c-3sc3ncnc(Nc4ccc(Oc5cccnc5)c(F)c4)c23)CC1` [Example 343, N-[3-fluoro-4-(pyridin-3-yloxy)phenyl]-2-[2-(4-methylpiperazin-1-yl)ethyl]-4,5-dihydro-2H-pyrimido[5′,4′:4,5]thieno[2,3-e]indazol-6-amine], the IC50 in test [1] was not above 5 µM; in test [2], not above 50 µM.

Consider `CS(=O)(=O)OCCn1ncc2c1CCc1c-2sc2ncnc(Nc3ccc4c(cnn4Cc4cccc(F)c4)c3)c12` [Example 290, 2-(6-{[1-(3-fluorobenzyl)-1H-indazol-5-yl]amino}-4,5-dihydro-3H-pyrimido[5′,4′:4,5]thieno[2,3-e]indazol-3-yl)ethyl methanesulfonate], for which the IC50 was not above 1 µM in test [1] and not above 5 µM in test [2].

On to `CCOC(=O)Cn1ncc2c1CCc1c-2sc2ncnc(Nc3ccc(OCc4cccc(F)c4)c(Cl)c3)c12` [Example 190, ethyl [6-({3-chloro-4-[(3-fluorobenzyl)oxy]phenyl}amino)-4,5-dihydro-3H-pyrimido[5′,4′:4,5]thieno[2,3-e]indazol-3-yl]acetate], for which the values for the IC50 in test [1] and in test [2] were not above 1 µM and not above 50 µM, respectively.

As for `Cc1cc(Nc2ncnc3sc4c(c23)CCc2c-4cnn2CCN2CCN(C)CC2)ccc1OCc1cccc(F)c1` [Example 323, N-{4-[(3-fluorobenzyl)oxy]-3-methylphenyl}-3-[2-(4-methylpiperazin-1-yl)ethyl]-4,5-dihydro-3H-pyrimido[5′,4′:4,5]thieno[2,3-e]indazol-6-amine], the IC50 in test [1] is not above 1 µM; in test [2] it was not above 5 µM.

For `CC(C)(C)OC(=O)N1CCC(n2cc3c(n2)CCc2c-3sc3ncnc(Nc4ccc(OCc5cccc(F)c5)c(Cl)c4)c23)CC1` [Example 216, tert-butyl 4-[6-({3-chloro-4-[(3-fluorobenzyl)oxy]phenyl}amino)-4,5-dihydro-2H-pyrimido[5′,4′:4,5]thieno[2,3-e]indazol-2-yl]piperidine-1-carboxylate], the IC50 in test [1] and in test [2] was not above 50 µM in each case.

Take `COC[C@@H]1CCCN1C[C@@H](O)Cn1cc2c(n1)CCc1c-2sc2ncnc(Nc3ccc(OCc4cccc(F)c4)c(Cl)c3)c12` [Example 140, (2R)-1-[6-({3-chloro-4-[(3-fluorobenzyl)oxy]phenyl}amino)-4,5-dihydro-2H-pyrimido[5′,4′:4,5]thienol[2,3-e]indazol-2-yl]-3-[(2S)-2-(methoxymethyl)pyrrolidin-1-yl]propan-2-ol]: the IC50 in test [1] was not above 1 µM; in test [2], not above 50 µM.

Take `CN1CCN(C(=O)Cn2cc3c(n2)CCc2c-3sc3ncnc(Nc4ccc5c(cnn5Cc5cccc(F)c5)c4)c23)CC1` [Example 182, N-[1-(3-fluorobenzyl)-1H-indazol-5-yl]-2-[2-(4-methylpiperazin-1-yl)-2-oxoethyl]-4,5-dihydro-2H-pyrimido[5′,4′:4,5]thieno[2,3-e]indazol-6-amine]: the IC50 was not above 1 µM in test [1] and not above 5 µM in test [2].

Consider `CS(=O)(=O)OCCn1cc2c(n1)CCc1c-2sc2ncnc(Nc3ccc4c(cnn4Cc4cccc(F)c4)c3)c12` [Example 276, 2-(6-{[1-(3-fluorobenzyl)-1H-indazol-5-yl]amino}-4,5-dihydro-2H-pyrimido[5′,4′:4,5]thieno[2,3-e]indazol-2-yl)ethyl methanesulfonate], for which the IC50 is not above 1 µM in test [1] and not above 5 µM in test [2].

For `COCCNCCn1cc2c(n1)CCc1c-2sc2ncnc(Nc3ccc(OCc4cccc(F)c4)c(Cl)c3)c12` [Example 59, N-{3-chloro-4-[(3-fluorobenzyl)oxy]phenyl}-2-{2-[(2-methoxyethyl)amino]ethyl}-4,5-dihydro-2H-pyrimido[5′,4′:4,5]thieno[2,3-e]indazol-6-amine], the IC50 in test [1] is not above 1 µM; in test [2] it was not above 5 µM.

For `OCCN(CCO)CCn1cc2c(n1)CCc1c-2sc2ncnc(Nc3ccc(OCc4cccc(F)c4)c(Cl)c3)c12` [Example 64, 2,2′-({2-[6-({3-chloro-4-[(3-fluorobenzyl)oxy]phenyl}amino)-4,5-dihydro-2H-pyrimido[5′,4′:4,5]thieno[2,3-e]indazol-2-yl]ethyl}imino)diethanol], the IC50 is not above 1 µM in test [1] and not above 5 µM in test [2].

In the case of `CN(C)[C@H]1CCN(CC(=O)N2CCC(Cn3cc4c(n3)CCc3c-4sc4ncnc(Nc5ccc(OCc6cccc(F)c6)c(Cl)c5)c34)CC2)C1` [Example 235, N-{3-chloro-4-[(3-fluorobenzyl)oxy]phenyl}-2-[(1-{[(3S)-3-(dimethylamino)pyrrolidin-1-yl]acetyl}piperidin-4-yl)methyl]-4,5-dihydro-2H-pyrimido[5′,4′:4,5]thieno[2,3-e]indazol-6-amine], the IC50 in test [1] is not above 1 µM; in test [2], not above 5 µM.

In the case of `COCCN1CCN(CCn2cc3c(n2)CCc2c-3sc3ncnc(Nc4ccc5c(cnn5Cc5ccccc5)c4)c23)CC1` [Example 308, N-(1-benzyl-1H-indazol-5-yl)-2-{2-[4-(2-methoxyethyl)piperazin-1-yl]ethyl}-4,5-dihydro-2H-pyrimido[5′,4′:4,5]thieno[2,3-e]indazol-6-amine], the results for the IC50 in test [1] and in test [2] were not above 1 µM and not above 50 µM, respectively.

As for `CCN(CC)C[C@@H](O)Cn1ncc2c1CCc1c-2sc2ncnc(Nc3ccc(OCc4cccc(F)c4)c(Cl)c3)c12` [Example 168, (2R)-1-[6-({3-chloro-4-[(3-fluorobenzyl)oxy]phenyl}amino)-4,5-dihydro-3H-pyrimido[5′,4′:4,5]thieno[2,3-e]indazol-3-yl]-3-(diethylamino)propan-2-ol trifluoroacetate (salt)], the values for the IC50 in test [1] and in test [2] were not above 1 µM and not above 50 µM, respectively.

(Values after patent publication US8207172B2 (Bayer Intellectual Property GmbH, priority 2004, dated 2012).)
